Here are results for 8 compounds from PubChem BioAssay (NCI).

Some test systems named below: 786-0 renal; CCRF-CEM leukemia; NCI-H226 lung; NCI-H23 lung; NCI/ADR-RES ovarian; PC-3 prostate; RXF 393 renal; SK-MEL-5 melanoma; T-47D breast; UACC-257 melanoma.
What all share (test): DTP human tumour cell line panel, 48 h

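Growth conditions: 96-well plates. Treatment: test compound, 48 hours, 5 concentrations. Analysis: linear interpolation between bracketing concentrations; unreached endpoints set to highest concentration. GI50 is the concentration that inhibits growth by half. At the TGI there is no net growth.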

By GI50 is commonly meant the concentration giving 50% growth inhibition. As usually defined, the TGI is the concentration at which net growth stops. A higher TGI goes with less potent growth arrest. Consider `CN(C)c1ccc(N=C(C#N)c2nc(N)nc(N3CCN(c4ccccc4)CC3)n2)cc1`, for which the GI50 with 786-0 renal is more than 50 µM; in the experiment on CCRF-CEM leukemia it was more than 50 µM; with NCI-H226 lung, 22.3 µM; in the experiment with NCI-H23 lung, more than 50 µM; in the experiment with NCI/ADR-RES ovarian, 34.2 µM; with PC-3 prostate, 36.9 µM. Further, the GI50 in the experiment on RXF 393 renal was 22.1 µM; in the experiment with SK-MEL-5 melanoma, 24.5 µM; with T-47D breast, more than 50 µM; in the experiment on UACC-257 melanoma, 28.1 µM. Besides, the concentration for total growth inhibition (TGI) with 786-0 renal, in the experiment with CCRF-CEM leukemia, in the experiment with NCI-H226 lung, in the experiment with NCI-H23 lung, with NCI/ADR-RES ovarian and with PC-3 prostate was more than 50 µM each time. Moreover, the TGI with RXF 393 renal is 39.1 µM; in the experiment on SK-MEL-5 melanoma, more than 47.5 µM; in the experiment with T-47D breast, more than 50 µM; in the experiment on UACC-257 melanoma it was more than 44.2 µM.
`CCCNc1cccc(-n2ncc3c(N/N=C/c4ccncc4)ncnc32)c1`: the GI50 in the experiment with 786-0 renal is more than 25 µM; in the experiment on CCRF-CEM leukemia it was more than 25 µM; in the experiment with NCI-H226 lung it was more than 16.5 µM; with NCI-H23 lung, more than 25 µM; in the experiment on NCI/ADR-RES ovarian it was 1.93 µM; in the experiment on PC-3 prostate, more than 25 µM. Also, the GI50 was 1.07 µM in the experiment on RXF 393 renal, 1.64 µM in the experiment with SK-MEL-5 melanoma, more than 25 µM with T-47D breast and more than 25 µM in the experiment with UACC-257 melanoma. For the same compound, the total growth inhibition concentration (TGI) with 786-0 renal, in the experiment with CCRF-CEM leukemia, in the experiment with NCI-H226 lung, in the experiment on NCI-H23 lung, with NCI/ADR-RES ovarian and with PC-3 prostate was more than 25 µM in each case. The total growth inhibition concentration (TGI) with RXF 393 renal, with SK-MEL-5 melanoma, in the experiment on T-47D breast and with UACC-257 melanoma was more than 25 µM each time.
Regarding `S=c1[nH]nc(SCc2ccccc2Cl)c2[nH]cnc12`, the total growth inhibition concentration (TGI) with 786-0 renal, with CCRF-CEM leukemia, in the experiment with NCI-H226 lung, with NCI-H23 lung, in the experiment on NCI/ADR-RES ovarian and in the experiment on PC-3 prostate was more than 100 µM throughout. Moreover, the TGI in the experiment with RXF 393 renal, in the experiment on SK-MEL-5 melanoma, with T-47D breast and in the experiment with UACC-257 melanoma was more than 100 µM throughout.
With `COc1cc(CNC(=O)CCSc2nc3ccccc3c(=O)n2Cc2cc(OC)c(OC)c(OC)c2)cc(OC)c1OC`, the GI50 in the experiment on 786-0 renal is 5.1 µM; in the experiment with CCRF-CEM leukemia, 4.91 µM; in the experiment on NCI-H226 lung, 14.6 µM; in the experiment on NCI-H23 lung, 6.87 µM; in the experiment with NCI/ADR-RES ovarian it was 3.59 µM; in the experiment on PC-3 prostate, 10.8 µM. Further, the GI50 is 5.31 µM in the experiment on RXF 393 renal, 2.85 µM in the experiment on SK-MEL-5 melanoma, 5.52 µM in the experiment with T-47D breast and 16.3 µM with UACC-257 melanoma. In addition, the TGI with 786-0 renal is 29 µM; with CCRF-CEM leukemia, more than 100 µM; with NCI-H226 lung, more than 100 µM; with NCI-H23 lung, more than 100 µM; with NCI/ADR-RES ovarian, 30.9 µM; with PC-3 prostate, more than 100 µM. Moreover, the total growth inhibition concentration (TGI) is 26 µM with RXF 393 renal, 13.7 µM in the experiment with SK-MEL-5 melanoma, 34 µM in the experiment with T-47D breast and more than 100 µM with UACC-257 melanoma.
With `COc1cc(CC2CC(c3ccc4c(c3)OCO4)OC2=O)cc(OC)c1OC` (stereo not given), the TGI with 786-0 renal, with CCRF-CEM leukemia, in the experiment with NCI-H226 lung, with NCI-H23 lung, in the experiment on NCI/ADR-RES ovarian and in the experiment on PC-3 prostate was more than 100 µM in each case. Besides, the TGI in the experiment with RXF 393 renal, with SK-MEL-5 melanoma, with T-47D breast and with UACC-257 melanoma was more than 100 µM in each case.
Turning to `Cn1c(O)c(N=NC(N)=S)c2ccccc21`, the GI50 in the experiment with 786-0 renal is 58.7 µM; with CCRF-CEM leukemia, 62.1 µM; in the experiment with NCI-H226 lung it was more than 100 µM; in the experiment on NCI-H23 lung, more than 100 µM; in the experiment with NCI/ADR-RES ovarian, 47.4 µM; in the experiment on PC-3 prostate, 79.9 µM. Besides, the GI50 in the experiment on RXF 393 renal is 32 µM; in the experiment with SK-MEL-5 melanoma, 38.1 µM; in the experiment with T-47D breast it was 43.9 µM; in the experiment on UACC-257 melanoma it was 71.6 µM. The TGI in the experiment with 786-0 renal, in the experiment with CCRF-CEM leukemia, in the experiment on NCI-H226 lung, in the experiment with NCI-H23 lung, in the experiment with NCI/ADR-RES ovarian and in the experiment on PC-3 prostate was more than 100 µM each time. The TGI with RXF 393 renal, in the experiment with SK-MEL-5 melanoma, in the experiment on T-47D breast and in the experiment with UACC-257 melanoma was more than 100 µM each time.
Consider `CN(C)CCNc1c2c(c(NCCN(C)C)c3c(CO)c[nH]c13)C(=O)c1ccccc1C2=O`, for which the GI50 in the experiment on 786-0 renal was 3.38 µM; in the experiment on CCRF-CEM leukemia it was 3.07 µM; with NCI-H226 lung it was 7.37 µM; in the experiment on NCI-H23 lung, 2.31 µM; in the experiment with NCI/ADR-RES ovarian it was 4.06 µM; in the experiment with PC-3 prostate it was 2.6 µM. Further, the GI50 was 3.83 µM with RXF 393 renal, 1.81 µM with SK-MEL-5 melanoma, 22.1 µM in the experiment with T-47D breast and 9.85 µM in the experiment on UACC-257 melanoma. Further, the total growth inhibition concentration (TGI) is 16.2 µM in the experiment with 786-0 renal; more than 32.1 µM with CCRF-CEM leukemia; 26.3 µM with NCI-H226 lung; more than 21.9 µM with NCI-H23 lung; 22.7 µM in the experiment on NCI/ADR-RES ovarian; 26.8 µM in the experiment with PC-3 prostate. Besides, the TGI with RXF 393 renal is 12.5 µM; in the experiment on SK-MEL-5 melanoma, 4.67 µM; in the experiment on T-47D breast it was 48.2 µM; in the experiment on UACC-257 melanoma, more than 76.2 µM.
Turning to `CCN(CC)CCOc1nc2cc(OC)c(OC)cc2c2c1-c1ccc(OC)cc1C2=O`, the GI50 with 786-0 renal is 15.7 µM; in the experiment on CCRF-CEM leukemia it was 0.54 µM; with NCI-H226 lung, 13.6 µM; with NCI-H23 lung it was 12.5 µM; with NCI/ADR-RES ovarian it was 13.2 µM; in the experiment with PC-3 prostate, 12.3 µM. Moreover, the GI50 in the experiment on RXF 393 renal was 12.8 µM; in the experiment with SK-MEL-5 melanoma, 16.1 µM; with T-47D breast, 18.4 µM; in the experiment on UACC-257 melanoma, 19.8 µM. Also, the concentration for total growth inhibition (TGI) amounted to 30.3 µM in the experiment on 786-0 renal; 12.3 µM in the experiment with CCRF-CEM leukemia; 35.1 µM in the experiment with NCI-H226 lung; 27.9 µM in the experiment with NCI-H23 lung; 29.8 µM in the experiment on NCI/ADR-RES ovarian; 26.8 µM in the experiment with PC-3 prostate. The total growth inhibition concentration (TGI) came out at 25.9 µM in the experiment on RXF 393 renal, 30.2 µM in the experiment on SK-MEL-5 melanoma, 38.2 µM with T-47D breast and 34.3 µM with UACC-257 melanoma.
